Measured values reported in US4208514A, “4(3H)-Oxobenzo-2,1,3-thiadiazine-2,2-dioxides” (The Dow Chemical Company, priority 1976, dated 1980).

Legend:
Assay type in all cases: in vivo
Velvet Leaf [1] = assay: Selective post-emergent greenhouse test, Velvet Leaf; settings: for pest or weed control at 358.672 g/ha / pest or weed control at 706.135 g/ha: post-emergence, 336 h, 2 weeks; for pest or weed control at 358.672 g/ha: 0.32 lbs/acre; for pest or weed control at 706.135 g/ha: 0.63 lbs/acre
Text: (§1) So as to illustrate clearly the phytotoxic properties of the various active ingredients of the present invention, a group of controlled greenhouse experiments is described below.
(§2) Various species of plants, both broadleaf weeds and valuable crops, were planted in beds of good agricultural soil in a greenhouse. After the plants had emerged and grown to a height of about 2-6 inches, a portion of the plants were sprayed with an aqueous mixture, made by mixing a selected active ingredient and emulsifier or dispersant with water to provide solution containing 250 or 125 ppm active ingredient, employing sufficient amounts of the treating composition to provide low post emergent application rates of about 0.63 or 0.32 pounds per acre. Other portions of the plants were left untreated to serve as controls. In each test the active ingredient was a 3-methylethyl-1H-2,1,3-benzothiadiazin-4(3H)-one-2,2-dioxide having a substituent in the one position according to the invention.
(§3) After a period of 2 weeks the selective effect of the test ingredient on the plants was evaluated by a comparison with the control group of plants.

Jimson Weed = assay: Selective post-emergent greenhouse test, Jimson Weed; settings: post-emergence, 336 h, 2 weeks; for pest or weed control at 358.672 g/ha: 0.32 lbs/acre; for pest or weed control at 706.135 g/ha: 0.63 lbs/acre
Text: as §1, §2, §3

Cotton = assay: Selective post-emergent greenhouse test, Cotton (crop injury); settings: for plant injury at 358.672 g/ha / plant injury at 706.135 g/ha: Gossypium hirsutum, post-emergence, 336 h, 2 weeks, crop, read-out: % Control Cotton; for plant injury at 358.672 g/ha: 0.32 lbs/acre; for plant injury at 706.135 g/ha: 0.63 lbs/acre
Text: as §1, §2, §3

Soybean = assay: Selective post-emergent greenhouse test, Soybean (crop injury); settings: Glycine max, post-emergence, 336 h, 2 weeks, read-out: % Control Soybean; for plant injury at 358.672 g/ha: 0.32 lbs/acre; for plant injury at 706.135 g/ha: 0.63 lbs/acre
Text: as §1, §2, §3

Velvet Leaf [2] = assay: General post-emergent herbicidal activity at 10 lbs/acre, Velvet Leaf; settings: post-emergence, 336 h
Text: as §2, with “[…], […]” for “emulsifier or dispersant with water to provide solution containing 250 or 125 ppm active ingredient, employing sufficient amounts of the treating composition to provide low post emergent application rates of about 0.63 or 0.32 pounds per acre.”
as §3

Annual Morning Glory = assay: General post-emergent herbicidal activity at 10 lbs/acre, Annual Morning Glory; settings: Ipomoea, post-emergence, 336 h
Text: as §2, with “[…], […]” for “emulsifier or dispersant with water to provide solution containing 250 or 125 ppm active ingredient, employing sufficient amounts of the treating composition to provide low post emergent application rates of about 0.63 or 0.32 pounds per acre.”
as §3

Nutsedge = assay: General post-emergent herbicidal activity at 10 lbs/acre, Nutsedge; settings: Cyperus, post-emergence, 336 h
Text: as §2, with “[…], […]” for “emulsifier or dispersant with water to provide solution containing 250 or 125 ppm active ingredient, employing sufficient amounts of the treating composition to provide low post emergent application rates of about 0.63 or 0.32 pounds per acre.”
as §3

SMILES: CCOC(=O)N1c2ccccc2C(=O)N(C(C)C)S1(=O)=O [CO2 CH2 CH3]
- pest or weed control at 358.672 g/ha (Velvet Leaf [1]): 70%
- pest or weed control at 706.135 g/ha (Velvet Leaf [1]): 100%
- pest or weed control at 358.672 g/ha (Jimson Weed): 100%
- pest or weed control at 706.135 g/ha (Jimson Weed): 100%
- plant injury at 358.672 g/ha (Cotton; post-emergent): 10%
- plant injury at 706.135 g/ha (Cotton; post-emergent): 30%
- plant injury at 358.672 g/ha (Soybean): 0%
- plant injury at 706.135 g/ha (Soybean): 0%

SMILES: CCCC(C)C(=O)N1c2ccccc2C(=O)N(C(C)C)S1(=O)=O (centres unmarked) [COCH(CH3)CH2 CH2 CH3, 1H-2,1,3-Benzothiadiazin-4(3H)-one: 3-(1-methylethyl)-1-(2-methyl-1-oxopentyl)-; 2,2-dioxide]
- pest or weed control at 11208.5 g/ha (Velvet Leaf [2]): 100%
- pest or weed control at 11208.5 g/ha (Annual Morning Glory): 100%
- pest or weed control at 11208.5 g/ha (Nutsedge): 95%

SMILES: CC(C)N1C(=O)c2ccccc2N(C(=O)C(C)(C)C)S1(=O)=O [COC(CH3)3, 3-(1-Methylethyl)-1-(2,2-dimethyl-1-oxopropyl)-1H-2,1,3- -benzothiadiazin-4(3H)-one-2,2-dioxide]
- pest or weed control at 358.672 g/ha (Velvet Leaf [1]): 80%
- pest or weed control at 706.135 g/ha (Velvet Leaf [1]): 100%
- pest or weed control at 358.672 g/ha (Jimson Weed): 70%
- pest or weed control at 706.135 g/ha (Jimson Weed): 100%
- plant injury at 358.672 g/ha (Cotton; post-emergent): 0%
- plant injury at 706.135 g/ha (Cotton; post-emergent): 40%
- plant injury at 358.672 g/ha (Soybean): 0%
- plant injury at 706.135 g/ha (Soybean): 0%

SMILES: CC(C)N1C(=O)c2ccccc2N(S(=O)(=O)c2ccccc2)S1(=O)=O
- pest or weed control at 358.672 g/ha (Velvet Leaf [1]): 0%
- pest or weed control at 706.135 g/ha (Velvet Leaf [1]): 30%
- pest or weed control at 358.672 g/ha (Jimson Weed): 100%
- pest or weed control at 706.135 g/ha (Jimson Weed): 100%
- plant injury at 358.672 g/ha (Cotton; post-emergent): 0%
- plant injury at 706.135 g/ha (Cotton; post-emergent): 0%
- plant injury at 358.672 g/ha (Soybean): 0%
- plant injury at 706.135 g/ha (Soybean): 0%

SMILES: CC(C)N1C(=O)c2ccccc2N(C(=O)C2CCCCC2)S1(=O)=O
- pest or weed control at 358.672 g/ha (Velvet Leaf [1]): 0%
- pest or weed control at 706.135 g/ha (Velvet Leaf [1]): 100%
- pest or weed control at 358.672 g/ha (Jimson Weed): 100%
- pest or weed control at 706.135 g/ha (Jimson Weed): 100%
- plant injury at 358.672 g/ha (Cotton; post-emergent): 0%
- plant injury at 706.135 g/ha (Cotton; post-emergent): 100%
- plant injury at 358.672 g/ha (Soybean): 0%
- plant injury at 706.135 g/ha (Soybean): 0%

SMILES: CCCCCCCCCCCC(=O)N1c2ccccc2C(=O)N(C(C)C)S1(=O)=O [CO(CH2)10 CH3, 3-(1-Methylethyl)-1-(1-oxododecanyl)-1H-2,1,3-benzothiadiazin-4 (3H)-one-2,2-dioxide]
- pest or weed control at 358.672 g/ha (Velvet Leaf [1]): 60%
- pest or weed control at 706.135 g/ha (Velvet Leaf [1]): 70%
- pest or weed control at 358.672 g/ha (Jimson Weed): 100%
- pest or weed control at 706.135 g/ha (Jimson Weed): 100%
- plant injury at 358.672 g/ha (Cotton; post-emergent): 0%
- plant injury at 706.135 g/ha (Cotton; post-emergent): 20%
- plant injury at 358.672 g/ha (Soybean): 0%
- plant injury at 706.135 g/ha (Soybean): 0%

SMILES: CC(C)N1C(=O)c2ccccc2NS1(=O)=O [3-methylethyl-1H-2,1,3-benzothiadiazin-4(3H)-one-2,2-dioixde, reference compound]
- control of velvet leaf (Velvet Leaf [1]; comparison test, about 0.32 pounds per acre): control of velvet leaf was obtained
- damage to cotton at dosage rates at which velvet leaf is controlled (Cotton; comparison compound, in general): cotton suffers substantial damage
- control of cotton (Cotton; comparison test, about 0.32 pounds per acre, post-emergent): 90%

SMILES: COC(=O)CCC(=O)N1c2ccccc2C(=O)N(C(C)C)S1(=O)=O [COCH2 CH2 CO2 CH3, 1H-2,1,3-Benzothiadiazin-1-butanoic acid; γ,4-Dioxo-3-(1-methylethyl)-3,4-dihydro-, methyl ester; 2,2-dioxide]
- pest or weed control at 11208.5 g/ha (Velvet Leaf [2]): 100%
- pest or weed control at 11208.5 g/ha (Annual Morning Glory): 100%
- pest or weed control at 11208.5 g/ha (Nutsedge): 95%

SMILES: CC(Br)C(=O)N1c2ccccc2C(=O)N(C(C)C)S1(=O)=O (centres unmarked) [COCHBrCH3, 1H-2,1,3-Benzothiadiazin-4(3H)-one: 1-(2-Bromo-1-oxopropyl)-3-(1-methylethyl)-; 2,2-dioxide]
- pest or weed control at 358.672 g/ha (Velvet Leaf [1]): 100%
- pest or weed control at 706.135 g/ha (Velvet Leaf [1]): 100%
- pest or weed control at 358.672 g/ha (Jimson Weed): 100%
- pest or weed control at 706.135 g/ha (Jimson Weed): 100%
- plant injury at 358.672 g/ha (Cotton; post-emergent): 0%
- plant injury at 706.135 g/ha (Cotton; post-emergent): 4%
- plant injury at 358.672 g/ha (Soybean): 0%
- plant injury at 706.135 g/ha (Soybean): 0%

SMILES: CC(C)N1C(=O)c2ccccc2N(C(=O)OCCCl)S1(=O)=O [CO2 CH2 CH2 Cl]
- pest or weed control at 358.672 g/ha (Velvet Leaf [1]): 95%
- pest or weed control at 706.135 g/ha (Velvet Leaf [1]): 100%
- pest or weed control at 358.672 g/ha (Jimson Weed): 80%
- pest or weed control at 706.135 g/ha (Jimson Weed): 100%
- plant injury at 358.672 g/ha (Cotton; post-emergent): 10%
- plant injury at 706.135 g/ha (Cotton; post-emergent): 10%
- plant injury at 358.672 g/ha (Soybean): 0%
- plant injury at 706.135 g/ha (Soybean): 0%
